Laboratory results as given in patent US9670223B2, “Compounds with super-aspirin effects” (SOLVOTRIN THERAPEUTICS LTD., priority 2011, dated 2017).
Read-outs that look alike come from different tables or passages of the source.

How the values were obtained:
[1] = system: platelet esterases (pNPA hydrolysis in WP); format: biochemical, human; details: for effect on NPA/PNA activity of WP or lysed platelets: 10-100 μM
Method: WP, PRP, PPP or lysed WP and 50 mM TrisHCl pH7.4 were incubated on a 96 well plate at 37° C. for 30 min. PNA at a final concentration of 3 mM was added to the plate and the change in absorbance at 405 nm was measured over a period of 10 min.
NPA hydrolyse activity could be due to CE (EC 3.1.1.1), BuChE, acetylcholinesterase (AChE, EC 3.1.1.7) or paraoxanase/arylesterase (PON, EC 3.1.8.1). To identify which esterases were involved in the hydrolysis of PNA, various inhibitors were incubated with the WP, PRP, PPP or lysed WP and 50 mM TrisHCl pH7.4 for 30 min at 37° C. prior to the addition of the PNA and the measurement of the change in absorbance at 405 nm. Physostigmine (100 μM), a cholinesterase inhibitor was used to check if BuChE/AChE played a role in the hydrolysis of PNA. […] PMSF (10-100 μM) was used to determine if serine proteases played any part in the hydrolysis of PNA by platelets. EDTA a calcium chelator was used to investigate the role played by PON esterases. BNPP a CE inhibitor of was used to investigate if carboxylesterases played a role in hydrolysis of PNA by platelets.

[2] = system: platelet rich plasma (PRP); experiment: Collagen-induced platelet aggregation in platelet rich plasma (light aggregometry); format: cell-based, human; details: for inhibition of collagen induced aggregation by hydrolysis products: 10-300 μM in PRP, collagen 5 μg/ml
Method: (§1) PRP and WP (2.5×10^8 platelets ml^−1) were prepared from blood. Briefly 36 ml whole blood was collected into 4 ml of 3.15% sodium citrate; this was centrifuged at 250 ¥g for 20 min (with gentle acceleration and deceleration). At this point PRP, which had separated from white blood cells and red blood cells, was gently removed. When WP were required this PRP was centrifuged at 700 g for 10 min (with gentle acceleration and deceleration) in the presence of prostacyclin. The platelet-poor plasma (PPP) was removed and the platelet pellet was washed three times with Tyrode's buffer, before being re-suspended in Tyrode's buffer to a concentration of 2.5 ¥108 platelets/ml.
(§2) Platelet aggregation was measured by light aggregometry. […] Aggregation was initiated by the addition of agonists, and monitored by Aggro-Link software for at least 6 min.
(§3) To study the aggregatory potency of ADP, the concentration-response (0.3-10 μM) curves were generated. Collagen at different concentrations (2-5 μg/ml) was also used to induce platelet aggregation. Submaximal concentrations of agonists, i.e. the concentrations that gave approximately 95% of the maximal aggregation were used to study the effects of inhibitors of aggregation. Aspirin and aspirin prodrugs was incubated for various intervals prior to the addition of aggregating agents.
(§4) Eserine (in DMSO, 10 μM, giving a final concentration≦0.25% DMSO, which pilot studies had determined not to affect platelet aggregation) was preincubated with PRP or WP for 5 min in the aggregometer with stirring at 900 r.p.m. before the addition of test compounds (ST0701-05), which were incubated in PRP or WP for a further 10 min prior to the addition of an agonist (10 μM ADP or 5 μg/ml Collagen) to induce platelet aggregation.

TxB2 = TxB2 suppression after single oral gavage dose; format: in vivo, cynomolgus monkey; details: for TxB2 suppression (TxB2 levels as percentage of baseline), in words: Phase 2A, single oral gavage, ST0702 9.6 mg/kg, aspirin 4.2 mg/kg, 1 and 24 hours post dosing; for TxB2 suppression, % complete: Phase 2B, at 24 hours
[3] = Plasma pharmacokinetics of aspirin and metabolites after single oral gavage dose; format: in vivo, cynomolgus monkey
Method: The objectives of this study are to determine the comparative clinical efficacy as determined by TxB2 suppression with single oral gavage dose administration of Aspirin, ST0702 and ST0702 Micronised to the cynomolgus monkey. Aspirin pharmacokinetics were compared using Area Under the Curve (AUC) calculations.
The objectives of this study are to determine the comparative pharmacokinetics of ST0702 at 9.6 and 4.8 mg/Kg with single oral gavage dose administration to the cynomolgus monkey and to determine dose-response effects.
Although the half life of the Isosorbide 2 salicylate 5 nicotinate metabolite is very short in-vitro, we investigated the serum taken from Cynomologus Monkeys participating in Study 2B above. The comparative pharmacokinetics of Isosorbide 2 salicylate 5 nicotinate from Monkeys receiving a single oral gavage dose of micronized ST0702 at 9.6 and 4.8 mg/Kg were evaluated. The concentrations of the breakdown products of ISANA were quantified using LCMS methods.
Animals are acclimated to the oral gavage procedure for at least 3 days prior to the commencement of dose formulation administration. Deionized water is administered by oral gavage using a disposable catheter attached to a plastic syringe at a dose volume of 5 mL/kg. Animals are treated at approximately the same time on each dosing day. Dose formulations are administered by oral gavage using a disposable catheter attached to a plastic syringe. Following each daily dose, the gavage tube is rinsed with 6 mL of Ultra Pure water into the animal's stomach. Each animal will be dosed with a clean gavage tube on each dosing occasion. The dosing volume is 10 mL/kg. Each actual volume administered will be based on the most recent practical body weight of each animal. The dose formulations will be stirred continuously during dose administration.
Samples are mixed gently and placed on crushed wet ice until centrifugation, which are carried out as soon as practical. The samples are centrifuged for approximately 10 minutes in a refrigerated centrifuge (approximately 4° C.) at 2700 rpm. The resultant plasma are separated, transferred to uniquely labeled clear polypropylene tubes, and frozen immediately over dry ice and transferred to a freezer set to maintain −80° C. The plasma samples are transferred to the bioanalytical laboratory at the Testing Facility.
Plasma samples are analyzed for concentration of Aspirin, Salicylic Acid and Nicotinic Acid using a qualified analytical procedure. Analysis are performed by LC MS/MS under Analytical Procedure. Data collection is performed using Analyst from AB Sciex. […]

[4] = system: platelet rich plasma (PRP); experiment: ADP-induced platelet aggregation in PRP; format: cell-based, human; details: ODQ 10 μM, ADP 10 μM, PRP
Method: as §1, §2, §3, §4
1H-[1,2,4]Oxadiazolo[4,3-a]quinoxalin-1-one (ODQ, dissolved in 100% DMSO, used at a final concentration of 10 μM, which gave a final concentration not more than 0.25% DMSO) was preincubated with PRP or WP for 5 min in the aggregometer with stirring at 900 r.p.m. before the addition of test compounds (ST0701-05), which were incubated in PRP or WP for a further 10 min prior to the addition of an agonist (10 μM ADP or 5 μg/ml collagen) to induce platelet aggregation.
Eserine (10 μM) was incubated with PRP for 5 min in the aggregometer with stirring at 900 r.p.m. before the addition of test compound ST0702 salicylate (500 μM), which was incubated in PRP for a further 10 min prior to the addition of the agonist ADP (10 μM) to induce platelet aggregation.

washed platelets (WP) = experiment: Collagen-induced platelet aggregation in washed platelets (light aggregometry); format: cell-based, human; details: WP, collagen 2 μg/ml, PMSF up to 100 μM
Method: as §1, §2, §3
To study the involvement of plasma BuChE in the activation of ST0701, purified BuChE (3 U/ml) was incubated with WP for 5 min in the aggregometer with stirring at 900 r.p.m. before the addition of the test compounds ST0701 which was incubated with the WP for a further 10 min, prior to the addition of collagen (5 ug/ml).
as §4
Phenylmethylsulphonylfluoride (PMSF) 20, 50 and 100 μM dissolved in EtOH (<0.2% EtOH, which pilot studies had determined not to affect platelet aggregation) was preincubated in WP in the aggregometer for 5 min with stirring at 900 r.p.m. before the addition of test compound ST0702 to the WP, which was further incubated for 10 min prior to the addition of collagen (2 μg/ml) to induce platelet aggregation.

59M cells [5] = experiment: Tumour cell-induced platelet aggregation (TCIPA), static conditions, 59M; format: cell-based, human; details: static, WP, 300 and 500 μM, 59M 1×10^3/ml
Description: ISAS meanwhile is hydrolysed to aspirin and salicylic acid. […] The structure of platelet-tumor cell aggregates was studied using phase-contrast microscopy (Alonso-Escolano et al., 2004; Jurasz et al., 2001). […] Aliquots of each sample were then taken for phase-contrast microscopy examination using an Olympus CKX41 microscope (Olympus America Inc., […].). Photomicrographs were captured using a digital camera and MicroFire (Olympus America Inc.) software (Alonso-Escolano et al., 2004; Jurasz et al., 2001).

59M cells [6] = experiment: Flow-mediated TCIPA using an ultrasound standing wave trap; format: cell-based, human; details: 500 μM, 59M cell cluster
Description: The ultrasound trap had three essential features: a transducer (Ferroperm, Kvistgard, Denmark) in a housing of radial symmetry, an aqueous phase and a reflector that provided optical access from above. The trap was driven with a function generator (Hewlett Packard 33120A, UK). Microscopic observation occurred with a fast, high-resolution XM10 camera (Soft Imaging System, SIS, GmbH) mounted on an Olympus BX51M reflection epi-fluorescence microscope. Images were captured by a standard PC equipped with the Cell-D image acquisition software (Soft Imaging System, SIS, GmbH).
The experimental procedure was as follows: 59M cells were introduced into the trap, the acoustic field (2.13 MHz, 0.85 MPa) was initiated and cell clusters were allowed to form. Clusters remained levitated in suspension for 10 min. Washed platelets (2.5×10^8/ml) were introduced into the trap at a flow rate of 3 μl/min. Perfusion of washed platelets around the cluster proceeded following initial adhesion of platelets to the periphery of the cluster.
To study the effect of aspirin and aspirin prodrugs in TCIPA, washed platelets were pre-incubated for 10 min at room temperature with the inhibitors: aspirin, nicotinate, ISAS, ISMNA, ortho and meta (all at a concentration of 500 μM), prior to their introduction into the ultrasound trap. […] The cell cluster-platelet aggregate remained under microscopic observation for further 10 min (the upper time limit established in the current study) under continuous flow conditions. Further experiments were performed with ST0702 salicylate (500 μM).

P-selectin = experiment: Flow cytometry of platelet P-selectin during TCIPA induced by 59M cells; format: cell-based, human; details: 300 μM

Which “effect on NPA/PNA activity of WP or lysed platelets” value [1] does the source give for O=[N+]([O-])c1ccc(OP(=O)(O)Oc2ccc([N+](=O)[O-])cc2)cc1 [BNPP, bis-p-nitrophylphosphate] here?
The value was “no significant effect”.

With O=C(O)CN(CCN(CC(=O)O)CC(=O)O)CC(=O)O [EDTA, ethylenediaminetetraacetic acid] as the compound, how does the “effect on NPA activity of WP” value [1] read?
The value was “no effect”.

With CC(C)NP(=O)(NC(C)C)OP(=O)(NC(C)C)NC(C)C [Iso-OMPA, tetraisopropylpyrophosphoramide] as the compound, how does the “effect on NPA/PNA activity of WP or lysed platelets” value [1] read?
The value was “no effect”.

For O[C@@H]1CO[C@H]2[C@@H]1OC[C@@H]2O [Isosorbide], which “inhibition of collagen induced aggregation by hydrolysis products” value (shortened to “inhibition … by hydrolysis products”) [2] is on record?
The value was “None of the hydrolysis products significantly inhibited aggregation”.

Which “TxB2 suppression (TxB2 levels as percentage of baseline), in words” value (TxB2) does the source give for CC(=O)Oc1ccccc1C(=O)OC1COC2C(OC(=O)c3cccnc3)COC12 (stereo not shown) [Micronized ST0702, isosorbide-2-aspirinate-5-nicotinate] here?
Its value is “no difference between aspirin and micronized ST0702”.

And the “TxB2 suppression (TxB2 levels as percentage of baseline), in words” value (TxB2; listed as micronised ISANA)?
Its value is “as effective as equimolar doses of aspirin”.

What about the “TxB2 suppression, % complete” value (TxB2; 4.8 mg/Kg oral) of the same compound?
The value was 47%.

What about the “TxB2 suppression, % complete” value (TxB2; 9.6 mg/Kg oral) of the same compound?
Its value is 70%.

And the “% of aspirin AUC” value ([3]; Phase 2B, Micronised ST0702 equimolar dose vs aspirin 4.2 mg/Kg)?
Its value is 62%.

And the “expected aspirin delivered in-vivo” value ([3]; Studies 2A and 2B together, relative to equivalent aspirin)?
Its value is 58-62%.

Which “inhibition of ADP induced aggregation when incubated alone” value [4] does the source give for O=c1onc2cnc3ccccc3n12 [ODQ, 1H-[1,2,4]oxadiazolo[4,3-a]quinoxalin-1-one, reference compound] here?
The value was “some inhibition”.

With O=S(=O)(F)Cc1ccccc1 [PMSF, phenylmethylsulphonyl fluoride] as the compound, how does the “effect of PMSF alone on collagen-induced aggregation” value (washed platelets (WP)) read?
Its value is “no significant effect”.

What about the “inhibition of NPA activity in WP” value ([1]; at 10 μM) of the same compound?
The value was 50%.

What about the “inhibition of NPA activity in WP” value ([1]; at 100 μM) of the same compound?
The value was “almost completely inhibited”.

Which “inhibition … by hydrolysis products” value [2] does the source give for O=C(O[C@H]1CO[C@H]2[C@@H]1OC[C@H]2OC(=O)c1ccccc1O)c1ccccc1O [isosorbide-2,5-disalicylate] here?
The value was “None of the hydrolysis products significantly inhibited aggregation”.

What about the “attenuation of aspirin's inhibitory effect on co-incubation” value ([2]; co-incubated with aspirin, 50-500 μM, non-significant trend) of the same compound?
The value was at most 10%.

For O=C(O[C@@H]1CO[C@H]2[C@H]1OC[C@@H]2O)c1ccccc1O [isosorbide-5-salicylate], which “inhibition … by hydrolysis products” value [2] is on record?
Its value is “None of the hydrolysis products significantly inhibited aggregation”.

What does the source list for CC(=O)Oc1ccccc1C(=O)O[C@H]1CO[C@H]2[C@@H]1OC[C@H]2OC(=O)c1cccc(CO[N+](=O)[O-])c1 [metanitrate]?
inhibition of TCIPA induced by 59M (59M cells [5]): inhibited; inhibition of TCIPA induced by 59M (59M cells [5]; listed as Meta): able to inhibit; inhibition of TCIPA under flow conditions (platelet-tumour cell disruption) (59M cells [6]): did not interfere; 59M-mediated increase in platelet surface P-selectin (P-selectin): significantly (P<0.05, n=4) reduce

For O=C(O)c1ccccc1O [salicylic acid], which “inhibition … by hydrolysis products” value [2] is on record?
The value was “None of the hydrolysis products significantly inhibited aggregation”.
